Experimental findings from patent publication US20110207609A1, “Piperazine Compounds With Herbicidal Effect” (BASF SE, priority 2008, published 2011) are described below.

The subject of experiment [1] is MATIN. Kind of experiment: greenhouse test, post-emergence treatment. It counts as in vivo, Matricaria inodora. To be noted: 2.0 kg/ha, scale 0 to 100. An excerpt: (§1) The culture containers used were plastic flowerpots containing loamy sand with approximately 5.8% of humus as the substrate. The seeds of the test plants were sown separately for each species.
(§2) For the post-emergence treatment, the test plants were first grown to a height of 1.5 to 15 cm, depending on the plant habit, and then treated with the active compounds which had been suspended or emulsified in water. For this purpose, the test plants were either sown directly and grown in the same containers, or they were first grown separately as seedlings and transplanted into the test containers a few days prior to treatment.
(§3) Depending on the species, the plants were kept at 10-25° C. or 20-35° C. The test period extended over 1 to 4 weeks. During this time, the plants were tended, and their response to the individual treatments was evaluated.
(§4) Evaluation was carried out using a scale from 0 to 100. 100 means no emergence of the plants, or complete destruction of at least the aerial moieties, and 0 means no damage, or normal course of growth. A good herbicidal activity is given at values of at least 70 and a very good herbicidal activity is given at values of at least 85.

The subject of experiment [2] is MATIN. Briefly: greenhouse test, pre-emergence treatment. It counts as in vivo, Matricaria inodora. The following applies: 2.0 kg/ha, scale 0 to 100.
Excerpt: as §1
(§5) For the pre-emergence treatment, the active compounds, which had been suspended or emulsified in water, were applied directly after sowing by means of finely distributing nozzles. The containers were irrigated gently to promote germination and growth and subsequently covered with transparent plastic hoods until the plants had rooted. This cover caused uniform germination of the test plants, unless this has been impaired by the active compounds.
as §3, §4

Experiment [3] concerns AGSST. Kind of experiment: greenhouse test, post-emergence treatment. It counts as in vivo, Agrostis alba. The following applies: 2.0 kg/ha, scale 0 to 100.
Excerpt: as §1, §2, §3, §4

Experiment [4] deals with CHEAL. Kind of experiment: greenhouse test, post-emergence treatment. It counts as in vivo, Chenopodium album. The following applies: 1.0 kg/ha, scale 0 to 100.
Excerpt: as §1, §2, §3, §4

Experiment [5] deals with SETVI. Briefly: greenhouse test, pre-emergence treatment. To be noted: 1.0 kg/ha, scale 0 to 100. It counts as in vivo, Setaria viridis.
Excerpt: as §1, §5, §3, §4

Experiment [6] deals with ECHCG. Briefly: greenhouse test, post-emergence treatment. The following applies: 1.0 kg/ha, scale 0 to 100. It counts as in vivo, Echinochloa crus-galli.
Excerpt: as §1, §2, §3, §4

In experiment [7] the test system is AMARE. Briefly: greenhouse test, post-emergence treatment. To be noted: 0.5 kg/ha, scale 0 to 100. It counts as in vivo, Amaranthus retroflexus.
Excerpt: as §1, §2, §3, §4

Experiment [8] concerns GALAP. Kind of experiment: greenhouse test, post-emergence treatment. It counts as in vivo, Galium aparine. To be noted: 0.5 kg/ha, scale 0 to 100.
Excerpt: as §1, §2, §3, §4

Experiment [9] relates to SETFA. Kind of experiment: greenhouse test, pre-emergence treatment. It counts as in vivo, Setaria faberi. To be noted: comparative experiment, 0.5 kg/ha. The method, then:
as §1
(§6) The containers were irrigated gently to promote germination and growth and subsequently covered with transparent plastic hoods until the plants had rooted.
as §3, §4

Experiment [10] has as its system APESV. Briefly: greenhouse test, pre-emergence treatment. It counts as in vivo, Apera spica-venti. The method, then: as §1, §6, §3, §4
Where [11] appears, read: comparative experiment, 0.5 kg/ha.

`CN1C(=O)C(C)(Cc2ccccc2)N(C)C(=O)C1=Cc1occc1Br` (racemic) [I-11]: the herbicidal activity entry in experiment [1], in experiment [2] and in experiment [3] was “very good (a very good herbicidal activity is given at values of at least 85)” throughout.

Turning to `Cc1nn(C)c(Cl)c1C=C1C(=O)N(C)C(C)(Cc2ccccc2)C(=O)N1C` (racemic) [I-15], the herbicidal activity entry in experiment [4] and in experiment [5] was “very good (a very good herbicidal activity is given at values of at least 85)” in each case.

As for `CN1C(=O)C(=Cc2cn(C)c3cccc([N+](=O)[O-])c23)NC(=O)C1(C)Cc1ccccc1` (racemic) [I-18], the herbicidal activity result in experiment [6] is “good (A good herbicidal activity is given at values of at least 70)”.

For the molecule `Cc1ncn(C)c1C=C1C(=O)N(C)C(C)(Cc2ccccc2)C(=O)N1C` (racemic) [I-38], the results for the herbicidal activity entry in experiment [7] and in experiment [8] were “good (A good herbicidal activity is given at values of at least 70)” and “very good (a very good herbicidal activity is given at values of at least 85)”, respectively.

For the molecule `CN1C(=O)C(C)(Cc2ccccc2)N(C)C(=O)C1=Cc1cc(Cl)sc1Cl` (racemic) [I-56], the herbicidal activity in experiment [9] and in [10] (setting [11]) was 80% each time.

Take `CN1C(=O)C(C)(Cc2ccccc2)N(C)C(=O)C1=Cc1cnn2cccnc12` (racemic) [I-61]: in experiment [10] (1.0 kg/ha, scale 0 to 100), the herbicidal activity result was “good (A good herbicidal activity is given at values of at least 70)”.

On to `CN1C(=O)C(Cc2cscc2C(F)(F)F)N(C)C(=O)C1Cc1ccccc1` (centres unmarked) [Ex. I.236.1, reference compound], for which the herbicidal activity in experiment [10] (setting [11]) is 20%.

Regarding `CN1C(=O)C(C)(Cc2ccccc2)N(C)C(=O)C1Cc1cscc1C(F)(F)F` (centres unmarked) [II-21], the figures for the herbicidal activity in [9] and in [10] (setting [11]) were 95% and 98%, respectively.
